Measurements from patent US7057059B2, “Tumor-inhibiting platinum (II) oxalate complexes” (Faustus Forschungs CIE. Translational Cancer Research GmbH, priority 2002, dated 2006).

Columns and labels:
[1] = system: 41M (adenocarcinoma of the ovary); format: cell-based; conditions: cell line 41M, MTT, 96 h
Procedure: (§1) The cytotoxicity of the compounds according to Examples 1 and 2 was tested by using the following cell lines 41M, CH1 and SW480. In this respect the following method was selected:
(§2) In this regard, adherent monolayer cultures of the following cell lines were used: 41M (adenocarcinoma of the ovary), CH1 (adenocarcinoma of the ovary), SW480 (adenocarcinoma of the colon; primary resistance to cisplatinum).
(§3) Culture conditions: The cells were kept in 75 cm^2 culture flasks at 37° C. and moist atmosphere (5% CO2). Minimal Essential Medium (MEM) was used as culture medium, with 2 mmol/l I-glutamine, 1 mmol/l sodium pyruvate, 50 IU/ml penicillin, 50 μg/ml streptomycin and 10% heat-inactivated foetal bovine serum.
(§4) Test execution: Cell suspensions were obtained from subconfluent cultures by treatment with trypsin and seeded in defined density in 96-well microculture plates. The initial density was selected such that for the complete test duration an exponential growth of the cultures was guaranteed. For the cell line 41M this was 4·10^4 cells/ml, for CH1 1.25·10^4 cells/ml and for SW480 1.5·10^4 cells/ml. The plates were incubated for 24 h under standard conditions to achieve cell establishment. Then the compounds to be tested were introduced in ten-staged concentration series in the culture medium (without addition of organic solvents or dissolving agents) into the plates and left for the complete test duration (96 h). Per experiment each concentration was tested on eight microcultures of the same cell line. At the end of the experiment the respective number of living cells in the microculture was determined spectrophotometrically (at 550 nm) using the MTT-dye reaction in relationship to the untreated control cultures. Equally, the number of living cells in microculture plates started in parallel was quantified at the start of the active substance exposition. […] The mean values were used for the evaluation.

[2] = system: SW480 (adenocarcinoma of the colon; primary resistance to cisplatinum); format: cell-based; conditions: cell line SW480, MTT, 96 h
Procedure: as §1, §2, §3, §4

[3] = system: CH1 (adenocarcinoma of the ovary); format: cell-based; conditions: cell line CH1, MTT, 96 h
Procedure: as §1, §2, §3, §4

animals free of tumors = assay: MTD study on animals free of tumors; conditions: on day 5, at MTD 10 mg/kg Qd×5
[4] = system: Female, tumor-bearing B6D2F1 mouse; assay: In vivo efficacy study: survivors on day 14 after tumor transplantation; conditions: for Survivors/total number: Qd×5, day 14 after tumor transplantation; for animals still alive on day 14: highest dosage level
Description: Female, tumor-bearing B6D2F1 mouse, day 14 after tumor transplantation.

leukaemia L1210 = assay: L1210 leukaemia in the mouse; format: in vivo; conditions: for effectiveness (survival to the end of the experiment): 3 mg/kg and 6 mg/kg, 21 day study
Description: FIG. 4 is a bar graph of the results of the effectiveness of (4-methyl-trans-chxn)Pt(ox) in comparison to I-OHP in leukaemia L1210 in the mouse at various dosages over a 21 day study.

[5] = MTD study on animals free of tumors; conditions: in vivo

Row | Compound | GL50 [1] | IC50 [1] | TGI [1] | Gl50 [2] | IC50 [2] | TGI [2] | Gl50 [3] | IC50 [3] | TGI [3] | weight loss (animals free of tumors) | animals still alive on day 14 [4] | effectiveness (survival to the end of the experiment) (leukaemia L1210) | MTD at 5 days [5] | also measured
1 | O=C(O)C(=O)O.[NH-][C@@H]1CCCC[C@H]1[NH-].[Pt+2] [[(trans-chxn)Pt(ox)]] | 0.99 µM | 4200 nM | 5000 nM | 0.8 µM | 1600 nM | 21800 nM | 0.54 µM | 700 nM | 2000 nM | – | – | – | – | –
2 | (SP-4-3)-(4-methyl-trans-cyclohexane-1,2-diamine)oxalatoplatinum (II) [[(4-methyl-trans-chxn)Pt(ox)]] | 0.91 ± 0.16 µM | 2400 nM | 4200 ± 2600 nM | 0.31 µM | 650 nM | 9000 nM | 0.22 µM | 340 nM | 930 nM | 5% | 4/6 | all animals survived the experiment to the end | – | Survivors/total number ([4]; dose 1.30 mg/kg): 6/6; Survivors/total number ([4]; dose 2.60 mg/kg): 5/6; Survivors/total number ([4]; dose 5.20 mg/kg): 4/6; tolerance at high dosage (leukaemia L1210; 24 mg/kg, in comparison to I-OHP): better tolerance
3 | O=C1[O][Pt]2([NH]C3CCCC[C@H]3[NH]2)[O]C1=O (stereo partly shown) [Oxaliplatinum, oxaliplatinum] | – | – | – | – | – | – | – | – | – | – | death of all animals | deaths already occurred | 5 mg/kg | Survivors/total number ([4]; dose 1.25 mg/kg): 5/6; Survivors/total number ([4]; dose 2.50 mg/kg): 6/6; Survivors/total number ([4]; dose 5.00 mg/kg): 0/6
4 | CCC1CCC2[NH][Pt]3([NH]C2C1)[O]C(=O)C(=O)[O]3 (stereo not drawn) [[(4-ethyl-trans-chxn)Pt(ox)], (SP-4-3)-(4-ethyl-trans-cyclohexane-1,2-diamine)oxalatoplatinum (II)] | – | – | – | – | – | – | – | – | – | 5% | 6/6 | – | 10 mg/kg | Survivors/total number ([4]; dose 1.34 mg/kg): 5/6; Survivors/total number ([4]; dose 2.68 mg/kg): 6/6; Survivors/total number ([4]; dose 5.35 mg/kg): 6/6
5 | O=C(O)C(=O)O.[NH-]C1CCCCC1[NH-].[Pt+2] (stereo not drawn) [[(trans-S,S-chxn)Pt(ox)]] | 1.11 µM | 3200 nM | 4400 nM | 2.2 µM | 4200 nM | 47800 nM | 1.14 µM | 1500 nM | 4200 nM | – | – | – | – | –
